Experimental data taken from the METLIN SMRT retention time set (Domingo-Almenara et al. 2019).

experiment: gradient 5% acetonitrile 3 min, to 50% in 2 min, to 85% in 15 min, held 3 min, 100 µL/min; conditions: column: Zorbax Extend-C18 2.1 x 50 mm; eluents: water / acetonitrile, 0.1% formic acid
How it was run: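 Values are retention times taken from adduct peaks that software picked and an analyst inspected. The pure standards were run as mixtures of ~100 molecules on HPLC linked to a quadrupole time-of-flight mass spectrometer, in positive and negative ionization mode. A Zorbax Extend-C18 column (2.1 × 50 mm, 1.8 μm) was used at 100 μL/min with water and acetonitrile, each including 0.1% formic acid.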

Row | RP-LC retention time [s] | Compound
1 | 695 | Cc1cc2nc(C(F)(F)F)c(=O)n(C(C)C(=O)NCCN(C)C)c2cc1C (stereo unspecified)
2 | 862 | O=C(Cn1cnc(-c2noc(-c3ccc(F)cc3)n2)c1)NC1CCCCC1
3 | 1110 | COc1ccc(CN2C=C(C(=O)OCc3noc(-c4ccc(OC)cc4)n3)C(C)=NS2(=O)=O)cc1
4 | 784 | c1ccc(-c2noc(CN3CCCCC3c3nc(C4CC4)no3)n2)nc1 (stereo unspecified)
5 | 667 | CN(C)CCNC(=O)C1CCN(c2nc3ccc(-c4ccccc4)nc3s2)CC1
6 | 784 | CCOc1ccc(N(C)C(=O)C2CCN(S(=O)(=O)c3ccc4c(c3)NC(=O)CO4)CC2)cc1
7 | 829 | O=C(C1CCN(c2cnn(Cc3ccccc3)c(=O)c2)CC1)N1CCc2ccccc2C1
8 | 1060 | Cc1ccc(N(C)S(=O)(=O)c2ccc(-c3c(C)noc3C)cc2)cc1
9 | 718 | Cc1cc(=O)n(CC(=O)NCc2ccc3c(c2)OCO3)c(N2CCc3ccccc3C2)n1
10 | 742 | CN(CC1(C)CCOCC1)C(=O)COc1ccccc1
11 | 1040 | Cc1ccc(N2CCN(S(=O)(=O)c3ccc(-c4nnc(C5CC5)o4)o3)CC2)cc1
12 | 689 | Cc1ccc(NC(=O)N2CCN(Cc3nc4ccccc4o3)CC2)cc1
13 | 504 | COc1cccc(CN2CCC(N3C[C@H](OC)[C@@H]3c3cccnc3)CC2)n1
14 | 697 | CCN(CC)CCNC(=O)Cn1ncc2c3ccccc3n(C)c2c1=O
15 | 985 | Cc1cccc(C(=O)Nc2nc(-c3ccc4c(c3)N(C)C(=O)CO4)cs2)c1
16 | 610 | CCn1ccc2sc(C)c(C(=O)NCCOC)c2c1=O
17 | 598 | O=C(Nc1ccccc1)C1CCCN(c2nnc3ccccn23)C1 (stereo unspecified)
18 | 959 | CN(C)c1ccc(N2C=C(C(=O)N3CCCCC3)S(=O)(=O)c3ccc(F)cc32)cc1
19 | 642 | COc1ccc(NC(=O)C2CC(=O)N(c3ccc4c(c3)CCN4C(C)=O)C2)cc1OC (stereo unspecified)
20 | 1010 | CCn1cc(C(=O)Nc2ccc(F)c(F)c2)c(S(=O)(=O)N2CCSCC2)n1
21 | 647 | O=S1(=O)C[C@H](N2CCN(Cc3ccccc3)CC2)[C@@H](S(=O)(=O)c2ccc(F)cc2)C1
22 | 907 | CC(C)NC(=O)N1CCCC(c2cccc(C(=O)NC(C)c3ccc(F)cc3)c2)C1 (stereo unspecified)
23 | 709 | COc1ccc(S(=O)(=O)NCCc2noc(C)n2)cc1
24 | 738 | CCc1cc(=O)n(CC(=O)Nc2cc(OC)cc(OC)c2)c(N2CCOCC2)n1
25 | 584 | Cc1c(CN2CCC[C@H]2c2nc(-c3ccccc3)n[nH]2)cnn1C
26 | 664 | O=C(NC1CC1)C1CCN(c2cnn(Cc3ccccc3)c(=O)c2)C1 (stereo unspecified)

The remaining lines, values behind:

Row | Compound | RP-LC retention time [s]
27 | COc1ccc(OC)c(NC(=O)Cn2c(-c3ccc(Cl)cc3)nc(C)cc2=O)c1 | 1220
28 | Cc1ccccc1S(=O)(=O)NC1CCN(c2ccc(=O)n(C)n2)C1 (stereo unspecified) | 705
29 | CC(C)C(=O)N1CCN(c2ccc(Nc3c4c(nc5nc(-c6ccccc6)nn35)CCCC4)cc2)CC1 | 898
30 | COc1ccc(OC)c(CNC(=O)C2CCCN(c3ccc(-c4ccccc4)nn3)C2)c1 (stereo unspecified) | 704
31 | COc1ccc(-n2nc3c(N4CCCC(C(=O)NCCc5ccccc5)C4)nnc(C)c3c2C)cc1 (stereo unspecified) | 740
32 | CCOc1ccc(CCNC(=O)c2ccc(-n3cnc(NC(=O)C4CC4)c3)cc2)cc1OCC | 748
33 | CCN1C(=O)C2(CCN(S(=O)(=O)c3ccc4c(c3)CCC4)CC2)c2ccccc21 | 1170
34 | O=C1Nc2ccccc2C1(c1ccc(O)cc1)c1ccc(O)cc1 | 755
35 | CN1C(=O)COc2ccc(-c3csc(NC(=O)c4cccc(Cl)c4)n3)cc21 | 1020
36 | O=C1Cc2ccccc2N1c1c(Cl)cccc1Cl | 875
37 | O=C1CC(c2ccc(O)cc2)c2c(c(C(=O)O)cn2-c2cccc(C(F)(F)F)c2)N1 (stereo unspecified) | 746
38 | Cc1ccc(NC(=O)NC2CCN(c3cc(C)cc(C)c3)C2=O)cc1 (stereo unspecified) | 607
39 | Cn1c(=O)c2cc(C(=O)NCc3ccccc3C(F)(F)F)nn2c2ccccc21 | 940
40 | COc1cc(C(=O)NC2CCN(c3cc(-c4ccc(Cl)cc4)[nH]n3)C2)cc(OC)c1OC (stereo unspecified) | 767
41 | COCCNc1c(-c2ccc(OC)cc2)nc2sc(C(=O)N(C)C)c(C)n12 | 698
42 | Cc1cccc(N2CCN(Cc3nc(-c4ccc(N5CCCC(C)C5)nc4)no3)CC2)c1 (stereo unspecified) | 1100
43 | COc1ccc(-c2cc(C(F)F)nn2-c2ccc(S(N)(=O)=O)cc2)cc1F | 997
44 | COc1cc(NS(=O)(=O)c2c(C)nn(-c3ccc(-c4ccc(C)cc4)nn3)c2C)cc(OC)c1 | 1120
45 | Cc1ccccc1OCc1nc(CCN(C)C(=O)Cc2cccs2)no1 | 924
46 | COc1ccccc1CNC(=O)c1ccc2c(c1)nc1n2CCN(Cc2ccccc2)C1=O | 789

Row | Compound | RP-LC retention time [s]
47 | O=C(Nc1nc2c(s1)COCC2)c1cccs1 | 664
48 | CC1CCC(Nc2c(-c3cccc(F)c3)nc3ncccn23)CC1 (stereo unspecified) | 905
49 | CCOC(=O)c1ccc(Nc2c(-c3cccc(Br)c3)nc3cnccn23)cc1 | 986
50 | CCN1CCN(C(=O)C2CCCN(S(=O)(=O)c3ccc(OC)c(OC)c3)C2)CC1 (stereo unspecified) | 593
51 | Cc1ccc(C(=O)N2CCc3[nH]nc(C(=O)N(C)C)c3C2)cc1C | 657
52 | O=C(NC(=O)N1CCN(Cc2ccccc2)CC1)c1ccccc1 | 549
53 | CN1c2ccccc2C(=O)NC12CCN(C(=O)Nc1ccccc1F)CC2 | 695
54 | O=C(NC1CC1)C1CCN(C(=O)c2ncn3c2COC(c2ccc(F)cc2)C3)CC1 (stereo unspecified) | 630
55 | CCc1cc(=O)n(CC(=O)Nc2ccc3c(c2)OCO3)c(N2CCOCC2)n1 | 671
56 | CC1CCN(C(=O)C2c3ccccc3CCN2CC(=O)NCc2ccccc2)CC1 (stereo unspecified) | 900
57 | CCN(C(=O)c1cc2c(s1)N(C)CCCC2)C(C)C | 1020
58 | CCc1ccccc1NC(=O)Cn1ccc2sccc2c1=O | 742
59 | c1cc(N2CCSCC2)ncc1-c1noc(CN2CCSCC2)n1 | 815
60 | Cc1ccc(NS(=O)(=O)c2cc(-c3nc(C)cs3)sc2C)c(C)c1 | 1090
61 | Cc1ccc(NC(=O)N2CCc3nc(CNC(=O)C4CCC4)n(C)c3C2)cc1 | 598
62 | COc1ccc(OC)c(NC(=O)Cn2c(=O)n(-c3ccc(C)cc3)c3ncccc32)c1 | 896
63 | CN(C)C(=O)COC(=O)Cc1ccc(OC(=O)c2ccc(N=C(N)N)cc2)cc1 | 651
64 | COc1ccc(OC)c(NC(=O)Cn2nc3c4cc(Cl)ccc4ncn3c2=O)c1 | 740
65 | O=C(NCC1CCOCC1)Nc1ccccc1 | 656
66 | CC(CCc1ccccc1)NC(=O)Cn1c(=O)n(C(C)C)c2ccc(S(=O)(=O)N3CCCC3)cc21 (stereo unspecified) | 932
